Test results reported in patent US12377098B2, “Compositions and methods for the treatment of alopecia” (Follea International, priority 2023, dated 2025).

Test system: scalp SULT1A1 enzyme
Details: oral, 20 subjects

## O=C([O-])O.[Na+] [sodium bicarbonate]
Dosages exceeding 1,000 mg q.d.
  subjects in whom the scalp SULT1A1 enzyme was induced: 18%
Dosages less than 500 mg q.d.
  induction of the scalp SULT1A1 enzyme: did induce
